According to patent US10124004B2, “Pyrido[3,4-d]pyrimidine derivative and pharmaceutically acceptable salt thereof” (Teijin Pharma Limited, priority 2015, dated 2018):
Like-named read-outs stand apart in the source and are kept apart here.

What was measured:
Assay type in all cases: biochemical
[1] = biological target: T1, CDK4/cyclin D3 (Homo sapiens, UniProt P11802); experiment: Human CDK4/cyclin D3 inhibitory activity (QS S Assist CDK4/Cyclin D3_FP Kit, IMAP fluorescence polarization)
T1 construct: purchased Carna Biosciences, Inc. QS S Assist CDK4/Cyclin D3_FP Kit
Outline: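 Percent inhibition, relative to DMSO with and without enzyme, was curve-fitted to give IC50 from polarization (ex 485, em 535 nm). The 45-min room-temperature reaction used 12.5-25 ng/well enzyme, kit ATP/substrate/metal mix, and HEPES pH 7.4 buffer with Tween20 and DTT, followed by 30-min IMAP binding in the dark.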

[2] = biological target: CDK6/cyclin D3 (Homo sapiens, UniProt Q00534); experiment: Human CDK6/cyclin D3 inhibitory activity (off-chip mobility shift assay); settings: 50% inhibitory concentration against CDK6/cyclin D3; 300 μM ATP, room temperature, five hours; read-out: CDK6 Activity Symbol
Description: Human CDK6/Cyclin D3 Inhibitory Activity
CDK6/cyclin D3 inhibitory activity was determined by the off-chip mobility shift assay (MSA). The MSA separates proteins from one another on the basis of a difference in electrophoretic mobility depending on the molecular weight or electric charge of the proteins. The kinase activity is determined by quantifying the degree of phosphorylation through electrophoretic analysis of a positive to negative change in electric charge of the substrate phosphorylated by the kinase.
Each solution was prepared with an assay buffer containing 20 mM HEPES (pH 7.5), 0.01% Triton X-100, and 2 mM dithiothreitol. A test compound solution was prepared by dilution of the test compound with dimethyl sulfoxide (DMSO) to a concentration 100 times higher than the final concentration and then 25-fold dilution with the assay buffer to a concentration four times higher than the final concentration. An ATP/substrate/metal solution was prepared to have a concentration four times higher than the final concentration. An enzyme solution was prepared to have a concentration twice higher than the final concentration. The final enzyme concentration was adjusted to an appropriate level on the basis of the enzyme activity signal and the inhibitory activity of a positive control compound.
The test compound solution (5 μL/well) and the ATP/substrate/metal solution (5 μL/well) were added to a 384-well plate, and the enzyme solution or the assay buffer (10 μL/well) was added to the plate (total amount of the reaction mixture: 20 μL/well) for initiation of enzymatic reaction. […] The reaction was performed at room temperature for five hours, and a termination buffer (QuickScout Screening Assist MSA, manufactured by Carna Biosciences, Inc.) (60 μL/well) was then added to the plate for termination of the reaction. Subsequently, the substrate peptide and the phosphorylated peptide in the reaction mixture were separated from each other and quantified with LabChip 3000 (manufactured by Caliper Lifesciences). The kinase reaction was evaluated by the product ratio (P/(P+S)) calculated from the peak height (S) of the substrate peptide and the peak height (P) of the phosphorylated peptide.
The percent inhibition of enzyme activity was calculated for each test compound (note: enzyme activity=100% in the case of addition of the enzyme solution and addition of DMSO instead of the test compound solution, whereas enzyme activity=0% in the case of addition of the assay buffer instead of the enzyme solution and addition of DMSO instead of the test compound solution). The percent inhibition of enzyme activity was fitted to a dose-response curve, to determine a 50% inhibitory concentration against CDK6/cyclin D3.
In each table, “+++” corresponds to IC50<10 nM, “++” 10 nM≤IC50<100 nM, and “+” 100 nM≤IC50.

[3] = biological target: T2, CDK2/cyclin A2 (Homo sapiens, UniProt P24941); experiment: Human CDK2/cyclin A2 inhibitory activity (QS S Assist CDK2/Cyclin A2_FP Kit, IMAP fluorescence polarization)
T2 construct: purchased Carna Biosciences, Inc. QS S Assist CDK2/Cyclin A2_FP Kit
Outline: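 Kinase activity read as fluorescence polarization (485/535 nm) after phosphorylated fluorescent substrate binds IMAP reagent (30 min, RT, dark). Enzyme (2.5 ng/well) reacted 60 min at RT with ATP/substrate/metal in HEPES pH 7.4 buffer with Tween 20 and DTT; no-enzyme wells define 0% activity; IC50 by curve fit.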

[4] = Human CDK4/cyclin D3 inhibitory activity, read-out: CDK4 Activity symbol
[5] = Human CDK2/cyclin A2 inhibitory activity, read-out: CDK2 Activity symbol
[6] = 50% inhibitory concentration against CDK4/cyclin D3, given as class symbol
[7] = 50% inhibitory concentration against CDK2/cyclin A2, given as class symbol

Sequence of CDK6/cyclin D3 (Q00534 whole entry): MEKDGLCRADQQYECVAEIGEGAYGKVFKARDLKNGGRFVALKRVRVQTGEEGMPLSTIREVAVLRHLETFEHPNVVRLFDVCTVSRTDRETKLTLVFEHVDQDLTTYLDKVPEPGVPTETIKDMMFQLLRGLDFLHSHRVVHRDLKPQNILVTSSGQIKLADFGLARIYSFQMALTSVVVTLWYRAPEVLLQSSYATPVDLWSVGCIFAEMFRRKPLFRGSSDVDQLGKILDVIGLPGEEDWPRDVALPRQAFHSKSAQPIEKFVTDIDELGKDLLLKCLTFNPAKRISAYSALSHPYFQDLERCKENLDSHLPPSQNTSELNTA
Sequence of CDK6/cyclin D3 (P30281 whole entry partner): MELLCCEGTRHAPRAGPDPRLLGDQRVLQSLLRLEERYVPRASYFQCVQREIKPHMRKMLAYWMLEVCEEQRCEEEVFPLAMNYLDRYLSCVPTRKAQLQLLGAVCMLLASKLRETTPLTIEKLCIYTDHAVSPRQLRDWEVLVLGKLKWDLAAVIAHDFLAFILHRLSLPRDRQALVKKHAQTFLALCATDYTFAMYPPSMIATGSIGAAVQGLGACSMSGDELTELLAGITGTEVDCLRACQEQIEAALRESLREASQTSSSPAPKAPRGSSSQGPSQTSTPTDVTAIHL
T1 sequence (P11802 whole entry): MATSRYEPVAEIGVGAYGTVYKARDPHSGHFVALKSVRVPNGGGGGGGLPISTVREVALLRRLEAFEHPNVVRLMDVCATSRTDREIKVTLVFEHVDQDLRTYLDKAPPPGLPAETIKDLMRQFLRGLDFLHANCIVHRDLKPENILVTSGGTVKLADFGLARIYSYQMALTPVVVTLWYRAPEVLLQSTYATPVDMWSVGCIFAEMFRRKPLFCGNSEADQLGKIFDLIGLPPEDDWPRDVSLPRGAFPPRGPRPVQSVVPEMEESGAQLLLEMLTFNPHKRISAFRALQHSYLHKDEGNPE
T1 sequence (P30281 whole entry partner): as the sequence (P30281 whole entry partner) above

| IC50 [1, 4] | IC50 [2] | IC50 [3, 5] | IC50 [1, 6] | IC50 [3, 7] | SMILES |
| --- | --- | --- | --- | --- | --- |
| < 0.01 µM | 0.01 to 0.1 µM | ≥ 0.1 µM | – | – | CO[C@H](C)c1cc2cnc(Nc3ccc(CN4CCNCC4)cn3)nc2c(NC(C)C)n1 [Compound 220] |
| – | < 0.01 µM | – | – | – | CC(C)Nc1nc(C(F)F)cc2cnc(Nc3ccc(N4CCNCC4)cn3)nc12 [Compound 3, 6-difluoromethyl-8-isopropyl-2-(5-piperazin-1-ylpyridin-2-yl)pyrido[3,4-d]pyrimidine-2,8-diamine] |
| – | 0.01 to 0.1 µM | – | < 0.01 µM | ≥ 0.1 µM | CCCNc1nc([C@@H](C)OC)cc2cnc(Nc3ccc(CN4CCNCC4)cn3)nc12 [Compound 818] |
| – | 0.01 to 0.1 µM | – | < 0.01 µM | ≥ 0.1 µM | CC(C)Nc1nc(C2CCCO2)cc2cnc(Nc3ccc(N4CCNCC4=O)cn3)nc12 (single isomer, unassigned) [Compound 672] |
| < 0.01 µM | 0.01 to 0.1 µM | ≥ 0.1 µM | – | – | CO[C@H](C)c1cc2cnc(Nc3ccc(N4CCNCC4)nn3)nc2c(NC(C)C)n1 [Compound 217, (R)—N8-isopropyl-6-(1-methoxyethyl)-N2-(6-(piperazin-1-yl)pyridazin-3-yl)pyrido[3,4-d]pyrimidine-2,8-diamine] |
| – | < 0.01 µM | – | < 0.01 µM | ≥ 0.1 µM | CC(C)Nc1nc([C@@H](C)O)cc2cnc(Nc3ccc4c(n3)CCN(CCN(C)C)C4)nc12 [Compound 954] |
| – | < 0.01 µM | – | < 0.01 µM | ≥ 0.1 µM | CC(C)N(C)c1nc([C@@H](C)O)cc2cnc(Nc3ccc(N4CCNCCC4=O)cn3)nc12 [Compound 904] |
| – | < 0.01 µM | – | < 0.01 µM | ≥ 0.1 µM | CC(C)Nc1nc(C2(C)COC2)cc2cnc(Nc3ccc(N4CCNCC4)nn3)nc12 [Compound 879] |
| – | < 0.01 µM | – | < 0.01 µM | ≥ 0.1 µM | CCCNc1nc([C@@H](C)O)cc2cnc(Nc3ccc(CN4CCN(CCO)CC4)cn3)nc12 [Compound 844] |
| – | < 0.01 µM | – | < 0.01 µM | ≥ 0.1 µM | CC(C)Nc1nc(C2(C)COC2)cc2cnc(Nc3ccc(CN4CCNCC4)cn3)nc12 [Compound 883] |
| < 0.01 µM | < 0.01 µM | ≥ 0.1 µM | – | – | CC(C)Nc1nc([C@@H](C)O)cc2cnc(Nc3ccc(N4CCNCC4=O)cn3)nc12 [Compound 230] |
| < 0.01 µM | 0.01 to 0.1 µM | ≥ 0.1 µM | – | – | CO[C@H](C)c1cc2cnc(Nc3ccc(CN4CCNCC4)cn3)nc2c(N[C@H]2CCCOC2)n1 [Compound 300] |
| < 0.01 µM | 0.01 to 0.1 µM | ≥ 0.1 µM | – | – | CO[C@H](C)c1cc2cnc(Nc3cnc(N4CCNCC4)cn3)nc2c(NC(C)C)n1 [Compound 363] |
| – | < 0.01 µM | – | < 0.01 µM | ≥ 0.1 µM | CC(C)Nc1nc(C2(C)COC2)cc2cnc(Nc3ccc(N4CCNCC4=O)cn3)nc12 [Compound 779] |
| – | 0.01 to 0.1 µM | – | < 0.01 µM | ≥ 0.1 µM | CCNc1nc([C@@H](C)O)cc2cnc(Nc3ccc(CN4CCN(CCO)CC4)cn3)nc12 [Compound 843] |
| – | 0.01 to 0.1 µM | – | < 0.01 µM | ≥ 0.1 µM | c1cc(N2CCNCC2)nnc1Nc1ncc2cc(C3CCOC3)nc(N[C@H]3CCCOC3)c2n1 (single isomer, unassigned) [Compound 938] |
| < 0.01 µM | 0.01 to 0.1 µM | ≥ 0.1 µM | – | – | CO[C@H](C)c1cc2cnc(Nc3ccc(N4CCNCC4)nn3)nc2c(N[C@H]2CCCOC2)n1 [Compound 304] |
| – | < 0.01 µM | – | < 0.01 µM | ≥ 0.1 µM | c1cc(Nc2ncc3cc(C4CCOC4)nc(N[C@H]4CCCOC4)c3n2)ncc1CN1CCNCC1 (single isomer, unassigned) [Compound 941] |
| < 0.01 µM | 0.01 to 0.1 µM | ≥ 0.1 µM | – | – | COCC(C)(C)Nc1nc([C@@H](C)O)cc2cnc(Nc3ccc(CN4CCNCC4)cn3)nc12 [Compound 221] |
| – | 0.01 to 0.1 µM | – | < 0.01 µM | ≥ 0.1 µM | CCC(O)c1cc2cnc(Nc3ccc(N4CCNCC4=O)cn3)nc2c(NC(C)C)n1 (centres unmarked) [Compound 1036] |
| – | 0.01 to 0.1 µM | – | < 0.01 µM | ≥ 0.1 µM | Cc1nc(Nc2ncc3cc([C@@H](C)O)nc(NC(C)C)c3n2)ccc1N1CCNCC1=O [Compound 749] |

| IC50 [1, 4] | IC50 [2] | IC50 [3, 5] | IC50 [1, 6] | IC50 [3, 7] | SMILES |
| --- | --- | --- | --- | --- | --- |
| – | – | – | 0.01 to 0.1 µM | ≥ 0.1 µM | CC(C)Nc1nc([C@@H](C)F)cc2cnc(Nc3ccc(N4CCNCC4)nn3)nc12 [Compound 718] |
| – | – | – | < 0.01 µM | ≥ 0.1 µM | C[C@@H](O)c1cc2cnc(Nc3ccc(N4CCNCC4)nn3)nc2c(NC2(C)CC2)n1 [Compound 1175] |
| – | – | – | < 0.01 µM | ≥ 0.1 µM | CC(C)Nc1nc([C@@H](C)O)cc2cnc(Nc3ccc(N4CCN(C[C@H](C)O)CC4)nn3)nc12 [Compound 676, (S)-1-(4-(6-((6-((R)-1-hydroxyethyl)-8-(isopropylamino)pyrido[3,4-d]pyrimidin-2-yl)amino)pyridazin-3-yl)piperazin-1-yl)propan-2-ol] |
| – | – | – | < 0.01 µM | ≥ 0.1 µM | CCC(OC)c1cc2cnc(Nc3ccc(CN4CCNCC4)cn3)nc2c(NC(C)C)n1 (centres unmarked) [Compound 1067] |
| < 0.01 µM | – | ≥ 0.1 µM | – | – | CO[C@H](C)c1cc2cnc(Nc3ccc(NC4CCNCC4)nn3)nc2c(NC(C)C)n1 [Compound 336] |
| < 0.01 µM | – | ≥ 0.1 µM | – | – | CO[C@H](C)c1cc2cnc(Nc3ccc(N4CCCC(O)C4)nn3)nc2c(NC(C)C)n1 (some centres unmarked) [Compound 286] |
| < 0.01 µM | – | ≥ 0.1 µM | – | – | CC(CO)Nc1nc(C(C)O)cc2cnc(Nc3ccc(N4CCNCC4)cn3)nc12 (centres unmarked) [Compound 41] |
| 0.01 to 0.1 µM | – | ≥ 0.1 µM | – | – | COCC(C)(C)Nc1nc([C@@H](C)O)cc2cnc(Nc3ccc(N4CC[C@H](O)CC4=O)cn3)nc12 [Compound 268] |
| – | – | – | < 0.01 µM | ≥ 0.1 µM | CCNc1nc([C@@H](C)OC)cc2cnc(Nc3ccc4c(n3)CCN(C(=O)OCCN(C)C)C4)nc12 [Compound 1134] |
| < 0.01 µM | – | 0.01 to 0.1 µM | – | – | CC(C)Nc1nc(C(F)F)cc2cnc(Nc3ccc(CN4CCOCC4=O)cn3)nc12 [Compound 166] |
| – | – | – | < 0.01 µM | ≥ 0.1 µM | CCNc1nc([C@@H](C)OC)cc2cnc(Nc3ccc(N4CCNCC4)nn3)nc12 [Compound 817] |
| < 0.01 µM | – | ≥ 0.1 µM | – | – | CC(C)Nc1nc([C@@H](C)O)cc2cnc(Nc3ccc(CN4CCC(C(C)(C)O)CC4)cn3)nc12 [Compound 549] |
| – | – | – | < 0.01 µM | ≥ 0.1 µM | C[C@H]1CC[C@H](Nc2nc(C(F)F)cc3cnc(Nc4ccc(CN5CCC(C(=O)O)CC5)cn4)nc23)CC1 [Compound 839] |
| – | – | – | < 0.01 µM | ≥ 0.1 µM | CO[C@H](C)c1cc2cnc(Nc3ccc(OC4CCNCC4)cn3)nc2c(NCC2CCOCC2)n1 [Compound 927] |
| – | – | – | ≥ 0.1 µM | ≥ 0.1 µM | O=C1CNCCN1c1ccc(Nc2ncc3c(Cl)c(C(F)F)nc(NCC4CCOCC4)c3n2)nc1 [Compound 840] |
| – | – | – | < 0.01 µM | 0.01 to 0.1 µM | CC(C)Nc1nc([C@@H](C)O)cc2cnc(Nc3ccc(C(=O)N4CCC(N(C)C)CC4)cn3)nc12 [Compound 1161] |
| – | – | – | < 0.01 µM | ≥ 0.1 µM | CC(C)Nc1nc(C2CCOC2)cc2cnc(Nc3ccc(N4CCNCC4)nn3)nc12 (centres unmarked) [Compound 877] |
| 0.01 to 0.1 µM | – | ≥ 0.1 µM | – | – | CC(C)Nc1nc(C(F)F)cc2cnc(Nc3ccc(CCCC(=O)O)cn3)nc12 [Compound 136] |
| – | – | – | < 0.01 µM | ≥ 0.1 µM | CC(C)Nc1nc([C@@H](C)O)cc2cnc(Nc3ccc(CN4CCC(O)CC4)cn3)nc12 [Compound 1019] |
| – | – | – | < 0.01 µM | ≥ 0.1 µM | CO[C@H](C)c1cc2cnc(Nc3ccc(CN4CCN(CCO)CC4)cn3)nc2c(N[C@H](C)CO)n1 [Compound 914] |
